Results from publication PMC2688463 (Journal of medicinal chemistry, 2008).

Experiments:
[1] = test system: MDA-MB-231 breast cancer cell line; assay: Cell growth assay; type: cell-based, human
[2] = test system: SK-OV-3 ovarian cancer cell line; assay: Cell growth assay; type: cell-based, human
MDA-MB-231 cell line = assay: Apoptosis assay; type: cell-based, human; details: 100 nM, 48 hours
[3] = target: recombinant human XIAP BIR3 protein (Homo sapiens, UniProt P98170); assay: Cell-free caspase-9 functional assay; type: biochemical; details: at concentrations as high as 100 μM
Sequence of recombinant human XIAP BIR3 protein (P98170 241-356): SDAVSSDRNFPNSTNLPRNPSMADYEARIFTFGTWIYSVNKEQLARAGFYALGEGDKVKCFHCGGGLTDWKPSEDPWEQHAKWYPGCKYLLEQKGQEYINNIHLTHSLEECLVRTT

CC[C@H](N)C(=O)N[C@H]1CCCC[C@H]2CC[C@@H](C(=O)NC(c3ccccc3)c3ccccc3)N2C1=O [Compound 17, (3S,6S,11S)-6-((S)-2-Amino-butyrylamino)-5-oxo-decahydro-pyrrolo[1,2-α]azocine-3-carboxylic acid benzhydryl-amide]
cellular activity (cell growth inhibition) [1]: weak cellular activity | cellular activity (cell growth inhibition) [2]: weak cellular activity

CN[C@@H](C)C(=O)N[C@H]1CCCC[C@H]2CC[C@@H](C(=O)NC(c3ccccc3)c3ccccc3)N2C1=O [Compound 20, (3S,6S,11S)-6-((S)-2-Methylamino-propionylamino)-5-oxo-decahydro-pyrrolo[1,2-α]azocine-3-carboxylic acid benzhydryl-amide]
induction of apoptosis (MDA-MB-231 cell line): robust apoptosis

CC[C@H](NC)C(=O)N[C@H]1CCCC[C@H]2CC[C@@H](C(=O)NC(c3ccccc3)c3ccccc3)N2C1=O [Compound 21, (3S,6S,11S)-6-((S)-2-Methylamino-butyrylamino)-5-oxo-decahydro-pyrrolo[1,2-α]azocine-3-carboxylic acid benzhydryl-amide]
induction of apoptosis (MDA-MB-231 cell line): robust apoptosis

C[C@H](O)C(=O)N[C@H]1CCCC[C@H]2CC[C@@H](C(=O)NC(c3ccccc3)c3ccccc3)N2C1=O [Compound 24]
restoration of caspase-9 activity [3]: no significant effect | times less potent than compound 25 in cell growth inhibition [1]: > 30 times | times less potent than compound 25 in cell growth inhibition [2]: > 30 times
